Results reported in PubChem BioAssay (NCI).
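The compound was tested at five concentrations on cells cultured in 96-well plates, with a 48-hour exposure period. TGI: concentration producing complete growth inhibition.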

Experiments:
Assay in all cases: NCI tumour cell line growth inhibition, 48 h
MOLT-4 leukemia = tested on: MOLT-4 leukemia
HCT-15 colon = tested on: HCT-15 colon
SR leukemia = tested on: SR leukemia
SK-OV-3 ovarian = tested on: SK-OV-3 ovarian
CAKI-1 renal = tested on: CAKI-1 renal
EKVX NSCLC = tested on: EKVX NSCLC
NCI-H460 lung = tested on: NCI-H460 lung
SN12C renal = tested on: SN12C renal
SF-268 CNS = tested on: SF-268 CNS
HOP-62 NSCLC = tested on: HOP-62 NSCLC
A549 NSCLC = tested on: A549 NSCLC
SK-MEL-2 melanoma = tested on: SK-MEL-2 melanoma
NCI-H23 lung = tested on: NCI-H23 lung
MDA-MB-231 breast = tested on: MDA-MB-231 breast
HCT-116 colon = tested on: HCT-116 colon
UACC-257 melanoma = tested on: UACC-257 melanoma
TK-10 renal = tested on: TK-10 renal
RPMI-8226 leukemia = tested on: RPMI-8226 leukemia
RXF 393 renal = tested on: RXF 393 renal
SF-539 CNS = tested on: SF-539 CNS
COLO 205 colon = tested on: COLO 205 colon
KM12 colon = tested on: KM12 colon
NCI-H226 lung = tested on: NCI-H226 lung
MALME-3M melanoma = tested on: MALME-3M melanoma
OVCAR-5 ovarian = tested on: OVCAR-5 ovarian
SNB-75 CNS = tested on: SNB-75 CNS
786-0 renal = tested on: 786-0 renal
MDA-MB-435 = tested on: MDA-MB-435
IGROV1 ovarian = tested on: IGROV1 ovarian
SW-620 colon = tested on: SW-620 colon
MCF7 breast = tested on: MCF7 breast
UO-31 renal = tested on: UO-31 renal
DU-145 prostate = tested on: DU-145 prostate
HL-60(TB) leukemia = tested on: HL-60(TB) leukemia
LOX IMVI melanoma = tested on: LOX IMVI melanoma
HT29 colon = tested on: HT29 colon
K-562 leukemia = tested on: K-562 leukemia
SF-295 CNS = tested on: SF-295 CNS
OVCAR-4 ovarian = tested on: OVCAR-4 ovarian
SK-MEL-5 melanoma = tested on: SK-MEL-5 melanoma
UACC-62 melanoma = tested on: UACC-62 melanoma
CCRF-CEM leukemia = tested on: CCRF-CEM leukemia
HOP-92 NSCLC = tested on: HOP-92 NSCLC
HS 578T breast = tested on: HS 578T breast
PC-3 prostate = tested on: PC-3 prostate
NCI/ADR-RES ovarian = tested on: NCI/ADR-RES ovarian
M14 melanoma = tested on: M14 melanoma
HCC-2998 colon = tested on: HCC-2998 colon
OVCAR-3 ovarian = tested on: OVCAR-3 ovarian
OVCAR-8 ovarian = tested on: OVCAR-8 ovarian
MDA-N = tested on: MDA-N
ACHN renal = tested on: ACHN renal
SNB-19 CNS = tested on: SNB-19 CNS
U251 CNS = tested on: U251 CNS
SK-MEL-28 melanoma = tested on: SK-MEL-28 melanoma
T-47D breast = tested on: T-47D breast
NCI-H522 lung = tested on: NCI-H522 lung

Work on CC1(C)NC(C)(C)/C(=N\O)C(=NO)/C1=N/O yielded a TGI (MOLT-4 leukemia) of over 100 µM, a TGI (HCT-15 colon) of over 100 µM and a TGI (SR leukemia) of over 100 µM. For the same molecule, the TGI (SK-OV-3 ovarian) was over 100 µM, the TGI (CAKI-1 renal) was over 100 µM and the TGI (EKVX NSCLC) was over 100 µM. The TGI (NCI-H460 lung) was over 100 µM, the TGI (SN12C renal) was over 100 µM and the TGI (SF-268 CNS) was over 100 µM. The TGI (HOP-62 NSCLC) was over 100 µM, the TGI (A549 NSCLC) was over 100 µM and the TGI (SK-MEL-2 melanoma) was over 100 µM. It also gave a TGI (NCI-H23 lung) of over 100 µM, a TGI (MDA-MB-231 breast) of over 100 µM and a TGI (HCT-116 colon) of over 100 µM. It also gave a TGI (UACC-257 melanoma) of over 100 µM, a TGI (TK-10 renal) of over 100 µM and a TGI (RPMI-8226 leukemia) of over 100 µM. For the same molecule, the TGI (RXF 393 renal) was over 100 µM, the TGI (SF-539 CNS) was over 100 µM and the TGI (COLO 205 colon) was over 100 µM. The TGI (KM12 colon) was over 100 µM, the TGI (NCI-H226 lung) was over 100 µM and the TGI (MALME-3M melanoma) was over 100 µM. The TGI (OVCAR-5 ovarian) was over 100 µM, the TGI (SNB-75 CNS) was over 100 µM and the TGI (786-0 renal) was over 100 µM. It also gave a TGI (MDA-MB-435) of over 100 µM, a TGI (IGROV1 ovarian) of over 100 µM and a TGI (SW-620 colon) of over 100 µM. For the same molecule, the TGI (MCF7 breast) was over 100 µM, the TGI (UO-31 renal) was over 100 µM and the TGI (DU-145 prostate) was over 100 µM. It also gave a TGI (HL-60(TB) leukemia) of over 100 µM, a TGI (LOX IMVI melanoma) of over 100 µM and a TGI (HT29 colon) of over 100 µM. For the same molecule, the TGI (K-562 leukemia) was over 100 µM, the TGI (SF-295 CNS) was over 100 µM and the TGI (OVCAR-4 ovarian) was over 100 µM. For the same molecule, the TGI (SK-MEL-5 melanoma) was over 100 µM, the TGI (UACC-62 melanoma) was over 100 µM and the TGI (CCRF-CEM leukemia) was over 100 µM. For the same molecule, the TGI (HOP-92 NSCLC) was over 100 µM, the TGI (HS 578T breast) was over 100 µM and the TGI (PC-3 prostate) was over 100 µM. The TGI (NCI/ADR-RES ovarian) was over 100 µM, the TGI (M14 melanoma) was over 100 µM and the TGI (HCC-2998 colon) was over 100 µM. It also gave a TGI (OVCAR-3 ovarian) of over 100 µM, a TGI (OVCAR-8 ovarian) of over 100 µM and a TGI (MDA-N) of over 100 µM. It also gave a TGI (ACHN renal) of over 100 µM, a TGI (SNB-19 CNS) of over 100 µM and a TGI (U251 CNS) of over 100 µM. It also gave a TGI (SK-MEL-28 melanoma) of over 100 µM and a TGI (T-47D breast) of over 100 µM.
CCOC(=O)C(NC(=O)CC)(Nc1ccccc1OC)C(F)(F)F (stereo not given) showed a TGI (MOLT-4 leukemia) of over 100 µM, a TGI (HCT-15 colon) of over 100 µM and a TGI (SR leukemia) of over 100 µM. The TGI (SK-OV-3 ovarian) was over 100 µM, the TGI (CAKI-1 renal) was over 100 µM and the TGI (NCI-H522 lung) was over 100 µM. For the same molecule, the TGI (EKVX NSCLC) was over 100 µM, the TGI (NCI-H460 lung) was over 100 µM and the TGI (SN12C renal) was over 100 µM. It also gave a TGI (SF-268 CNS) of over 100 µM, a TGI (A549 NSCLC) of over 100 µM and a TGI (SK-MEL-2 melanoma) of over 100 µM. For the same molecule, the TGI (NCI-H23 lung) was over 100 µM, the TGI (MDA-MB-231 breast) was over 100 µM and the TGI (HCT-116 colon) was over 100 µM. The TGI (UACC-257 melanoma) was over 100 µM, the TGI (TK-10 renal) was over 100 µM and the TGI (RPMI-8226 leukemia) was over 100 µM. For the same molecule, the TGI (RXF 393 renal) was over 100 µM, the TGI (SF-539 CNS) was over 100 µM and the TGI (COLO 205 colon) was over 100 µM. The TGI (KM12 colon) was over 100 µM, the TGI (OVCAR-5 ovarian) was over 100 µM and the TGI (SNB-75 CNS) was over 100 µM. The TGI (MDA-MB-435) was over 100 µM, the TGI (IGROV1 ovarian) was over 100 µM and the TGI (SW-620 colon) was over 100 µM. For the same molecule, the TGI (MCF7 breast) was over 100 µM, the TGI (UO-31 renal) was over 100 µM and the TGI (DU-145 prostate) was over 100 µM. It also gave a TGI (HL-60(TB) leukemia) of over 100 µM, a TGI (LOX IMVI melanoma) of over 100 µM and a TGI (HT29 colon) of over 100 µM. It also gave a TGI (K-562 leukemia) of over 100 µM, a TGI (SF-295 CNS) of over 100 µM and a TGI (OVCAR-4 ovarian) of over 100 µM. The TGI (SK-MEL-5 melanoma) was over 100 µM, the TGI (UACC-62 melanoma) was over 100 µM and the TGI (CCRF-CEM leukemia) was over 100 µM. For the same molecule, the TGI (HOP-92 NSCLC) was over 100 µM, the TGI (HS 578T breast) was over 100 µM and the TGI (PC-3 prostate) was over 100 µM. The TGI (NCI/ADR-RES ovarian) was over 100 µM, the TGI (M14 melanoma) was over 100 µM and the TGI (HCC-2998 colon) was over 100 µM. It also gave a TGI (OVCAR-3 ovarian) of over 100 µM, a TGI (OVCAR-8 ovarian) of over 100 µM and a TGI (MDA-N) of over 100 µM. The TGI (ACHN renal) was over 100 µM, the TGI (SNB-19 CNS) was over 100 µM and the TGI (U251 CNS) was over 100 µM. It also gave a TGI (SK-MEL-28 melanoma) of over 100 µM and a TGI (T-47D breast) of over 100 µM.
c1ccc2c(c1)CCN2CCN1CCc2ccccc21 showed a TGI (MOLT-4 leukemia) of over 10 µM, a TGI (HCT-15 colon) of over 10 µM and a TGI (SR leukemia) of over 10 µM. It also gave a TGI (SK-OV-3 ovarian) of over 10 µM, a TGI (CAKI-1 renal) of over 10 µM and a TGI (NCI-H522 lung) of over 10 µM. For the same molecule, the TGI (EKVX NSCLC) was over 10 µM, the TGI (NCI-H460 lung) was over 10 µM and the TGI (SN12C renal) was over 10 µM. For the same molecule, the TGI (SF-268 CNS) was over 10 µM, the TGI (HOP-62 NSCLC) was over 10 µM and the TGI (A549 NSCLC) was over 10 µM. The TGI (SK-MEL-2 melanoma) was over 10 µM, the TGI (NCI-H23 lung) was over 10 µM and the TGI (MDA-MB-231 breast) was over 10 µM. It also gave a TGI (HCT-116 colon) of over 10 µM, a TGI (UACC-257 melanoma) of over 10 µM and a TGI (TK-10 renal) of over 10 µM. It also gave a TGI (RPMI-8226 leukemia) of over 10 µM, a TGI (RXF 393 renal) of over 10 µM and a TGI (SF-539 CNS) of over 10 µM. It also gave a TGI (COLO 205 colon) of over 10 µM, a TGI (KM12 colon) of over 10 µM and a TGI (NCI-H226 lung) of over 10 µM. It also gave a TGI (OVCAR-5 ovarian) of over 10 µM, a TGI (SNB-75 CNS) of over 10 µM and a TGI (786-0 renal) of over 10 µM. For the same molecule, the TGI (MDA-MB-435) was over 10 µM, the TGI (IGROV1 ovarian) was over 10 µM and the TGI (SW-620 colon) was over 10 µM. For the same molecule, the TGI (MCF7 breast) was over 10 µM, the TGI (UO-31 renal) was over 10 µM and the TGI (DU-145 prostate) was over 10 µM. The TGI (HL-60(TB) leukemia) was over 10 µM, the TGI (LOX IMVI melanoma) was over 10 µM and the TGI (HT29 colon) was over 10 µM. For the same molecule, the TGI (K-562 leukemia) was over 10 µM, the TGI (SF-295 CNS) was over 10 µM and the TGI (OVCAR-4 ovarian) was over 10 µM. For the same molecule, the TGI (SK-MEL-5 melanoma) was over 10 µM, the TGI (UACC-62 melanoma) was over 10 µM and the TGI (CCRF-CEM leukemia) was over 10 µM. For the same molecule, the TGI (HOP-92 NSCLC) was over 10 µM, the TGI (HS 578T breast) was over 10 µM and the TGI (PC-3 prostate) was over 10 µM. It also gave a TGI (NCI/ADR-RES ovarian) of over 10 µM, a TGI (M14 melanoma) of over 10 µM and a TGI (HCC-2998 colon) of over 10 µM. For the same molecule, the TGI (OVCAR-3 ovarian) was over 10 µM, the TGI (OVCAR-8 ovarian) was over 10 µM and the TGI (MDA-N) was over 10 µM. It also gave a TGI (ACHN renal) of over 10 µM, a TGI (SNB-19 CNS) of over 10 µM and a TGI (U251 CNS) of over 10 µM. The TGI (SK-MEL-28 melanoma) was over 10 µM and the TGI (T-47D breast) was over 10 µM.
